Results reported in ChEMBL document CHEMBL4020728 (Bioorg Med Chem, 2017).

What was measured:
[1] = target: Carbonic anhydrase 9 (Homo sapiens, UniProt Q16790)
Description: Inhibition of recombinant human carbonic anhydrase-9 assessed as reduction in CO2 hydration preincubated for 10 mins measured for 5 to 10 secs by stopped flow assay

[2] = target: Carbonic anhydrase 2 (Homo sapiens, UniProt P00918); assay: Inhibition of recombinant human carbonic anhydrase-2 assessed as reduction in CO2 hydration preincubated for 10 mins measured for 5 to 10 secs by stopped flow assay
[3] = target: Carbonic anhydrase 1 (Homo sapiens, UniProt P00915); assay: Inhibition of recombinant human carbonic anhydrase-1 assessed as reduction in CO2 hydration preincubated for 10 mins measured for 5 to 10 secs by stopped flow assay
Chain of Carbonic anhydrase 1 (P00915 whole entry): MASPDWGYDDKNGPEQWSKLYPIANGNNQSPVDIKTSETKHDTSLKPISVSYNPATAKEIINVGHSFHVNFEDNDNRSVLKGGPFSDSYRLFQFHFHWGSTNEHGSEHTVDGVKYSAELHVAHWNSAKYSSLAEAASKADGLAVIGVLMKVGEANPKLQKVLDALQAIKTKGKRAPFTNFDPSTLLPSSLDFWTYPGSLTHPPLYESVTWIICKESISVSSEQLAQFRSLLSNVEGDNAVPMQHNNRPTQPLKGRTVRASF

[4] = target: Carbonic anhydrase 12 (Homo sapiens, UniProt O43570); assay: Inhibition of recombinant human carbonic anhydrase-12 assessed as reduction in CO2 hydration preincubated for 10 mins measured for 5 to 10 secs by stopped flow assay
Chain of Carbonic anhydrase 12 (O43570 whole entry): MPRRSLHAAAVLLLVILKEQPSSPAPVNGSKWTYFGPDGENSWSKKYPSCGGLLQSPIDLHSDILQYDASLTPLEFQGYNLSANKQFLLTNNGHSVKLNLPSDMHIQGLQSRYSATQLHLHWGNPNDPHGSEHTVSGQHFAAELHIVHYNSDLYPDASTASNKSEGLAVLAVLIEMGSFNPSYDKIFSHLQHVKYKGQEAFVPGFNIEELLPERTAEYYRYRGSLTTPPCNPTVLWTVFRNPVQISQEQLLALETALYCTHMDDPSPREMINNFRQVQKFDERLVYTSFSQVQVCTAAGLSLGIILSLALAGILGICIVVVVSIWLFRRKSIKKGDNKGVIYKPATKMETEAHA

Row | Structure (SMILES) | Ki [1] | Ki [2] | Ki [3] | Ki [4]
1 | CC#CCN1C(=O)c2ccccc2S1(=O)=O | 563 nM | > 10 µM | > 10 µM | –
2 | O=C(O)c1ccccc1S(=O)(=O)NCc1ccc(Br)cc1 | 277 nM | – | > 10 µM | –
3 | CCCCCNS(=O)(=O)c1ccccc1C(=O)O | 392 nM | > 10 µM | > 10 µM | –
4 | CCCNS(=O)(=O)c1ccccc1C(=O)O | 481 nM | > 10 µM | > 10 µM | –
5 | O=C(O)c1ccccc1S(=O)(=O)NCc1ccccc1 | 342 nM | – | > 10 µM | –
6 | CCN1C(=O)c2ccccc2S1(=O)=O | 236 nM | > 10 µM | > 10 µM | –
7 | CC#CCNS(=O)(=O)c1ccccc1C(=O)O | 250 nM | > 10 µM | > 10 µM | –
8 | CCCCNS(=O)(=O)c1ccccc1C(=O)O | 436 nM | > 10 µM | > 10 µM | –

Compounds with a lower Ki [1], results first:

Row | Ki [1] | Ki [2] | Ki [3] | Ki [4] | Structure (SMILES)
9 | 209 nM | > 10 µM | > 10 µM | – | CCCN1C(=O)c2ccccc2S1(=O)=O
10 | 76.1 nM | > 10 µM | > 10 µM | 10.4 nM | O=C1c2ccccc2S(=O)(=O)N1CCc1ccccc1
11 | 102 nM | > 10 µM | > 10 µM | 34 nM | CCCCCN1C(=O)c2ccccc2S1(=O)=O
12 | 89.2 nM | > 10 µM | > 10 µM | – | O=C1c2ccccc2S(=O)(=O)N1Cc1ccccc1
13 | 164 nM | > 10 µM | > 10 µM | – | CCCCN1C(=O)c2ccccc2S1(=O)=O
